How the values were obtained:
3T3 cells = test: Percentage of total PUFAs in membranes of 3T3 cells treated with fatty acids (gas chromatography); format: cell-based; details: 100 μM, 48 hours, mean ± SEM of four measures, control 32.4 ± 2.1
Excerpt: To perform these experiments, membranes were extracted and total fatty acids were obtained by hydrolysis in basic medium. Methanolic bases of these fatty acids were quantified by gas chromatography. The data shown are averages of four independent measures of PUFA's mass divided by the total fatty acids and expressed as a percentage. It is also shown is standard error of the mean.
The control corresponds to a culture without the presence of added natural or synthetic fatty acids. Cells in their natural form present PUFAs in their membranes, but the presence in the medium of the D-PUFA molecules of the invention increases these levels of PUFAs in the cell membrane.

[1] = Lamellar-to-hexagonal (HII) transition temperature in DEPE model membranes by Differential Scanning Calorimetry; format: physicochemical; details: for Transition temperature (lamellar to HII): DEPE (4 mM), 200 μM compound, series A, control 64.5; for Temperature of lamellar-to-hexagonal transition: DEPE membranes, DEPE:D-PUFA 10:1 (mol:mol)
Experimental: The transition temperature was determined by Differential Scanning Calorimetry. The proportion DEPE:D-PUFA was 10:1 (mol:mol) in all cases. Lamellar-to-hexagonal transition is an important parameter that reflects relevant signalling properties of cell membranes. […] When this occurs, certain peripheral membrane proteins (such as G proteins, protein kinase C or Ras protein) can more easily bind to the membrane, while others have a poor interaction (e.g., the Gα-protein), so changes in the HII transition temperature are important in regulating cellular functions related to health and human therapy (Escriba et al., 1995, Vogler et al., 2004; Escriba, 2006).
Control values correspond to model membranes in the absence of fatty acids. The reduction in HII transition temperature obtained by using the D-PUFA of the invention indicates an increased induction of membrane discontinuities, generating anchoring sites in the membrane for peripheral proteins and leads to better regulation of cell signalling and, therefore, greater effectiveness in the control of certain diseases.

[2] = system: heterotrimeric Gi1 protein; test: Binding of heterotrimeric Gi1 protein to model membranes (centrifugation, immunoblotting); details: phosphatidylcholine:phosphatidylethanolamine (6:4) 2 mM phospholipid, 0.1 μM D-PUFA; control 100 ± 5; in % (unit assumed)
Excerpt: The net result is a regulation of cell signalling leading to the reversal of various pathological processes, as shown later. […] The Control is a sample of model membranes in the absence of fatty acids.

[3] = system: breast cancer cells MDA-MB-231; test: Growth of breast cancer cells MDA-MB-231; format: cell-based; details: 72 hours of incubation
Method in brief: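 Cell counts taken with compound, mean of three independent experiments. Applies to MDA-MB-231.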

[4] = system: brain cancer cell (glioma) U118; test: Brain cancer (glioma) U118 cell growth; format: cell-based; details: 72 hours of incubation
Method in brief: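 Cell counts taken with compound, mean of three independent experiments. Applies to U118.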

lung cancer cells A549 = test: Growth of lung cancer cells A549 (IC50); format: cell-based, human; details: 72 hours of incubation
Method in brief: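 Cell counts taken with compound, mean of three independent experiments. Applies to A549 (RPMI 1640, 10% FBS, 37 °C, 5% CO2).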

Jurkat cells = test: Human leukaemia (Jurkat cells); format: cell-based; details: 72 hours
Experimental: (§1) Overall, it may be seen that the series of compounds A and B are the best, so the effectiveness of these series against the development of leukaemia and liver cancer (Tables 9 and 10) was tested.

HepG2 cells = test: Liver cancer (HepG2 cells); format: cell-based; details: Homo sapiens, HepG2; 72 hours
Experimental: These charts show the antitumor efficacy of the compounds of this invention against the growth of breast cancer cells, brain (glioma), and lung cancer. […] The other experimental conditions are identical to those described in the preceding paragraph.
as §1

[5] = system: Spontaneously Hypertensive Rats (SHR); test: Blood pressure of SHR rats (cuff-tail method); format: in vivo, rat; details: 200 mg/kg day p.o., 30 days, before treatment 214 mmHg
Method in brief: (§2)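 SHR rats dosed orally at 200 mg/kg day for 30 days against water vehicle. At study end, blood pressure taken non-invasively by tail cuff and apoA-I assessed as gene expression by RT-PCR.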

[6] = system: apolipoprotein AI (apoA-I); test: Levels of apoA-I in SHR rats (RT-PCR); format: in vivo, rat; details: 200 mg/kg day p.o., 30 days, before treatment 100%
Method in brief: as §2

P19 cells = test: NMDA-induced neuronal death in P19 cells; format: cell-based; details: NMDA alone 100% death, control without NMDA 0%; negative values = proliferation
α-synuclein = test: Expression of α-synuclein in neuronal cultures (cells P19); format: cell-based; details: untreated cells 100%
COX-2 = test: Expression of COX-2 in LPS-stimulated monocytes in culture; format: cell-based, human; details: positive control with LPS 100%
Excerpt: FIG. 5A also presents a drawing showing the COX-2/COX-1 relationship as % of control (Y axis) for the following compounds (X-axis): OOA (2-hydroxy-oleic acid), OLA (182A1), OALA (183A1), OGLA (183A2), OARA (204A1), OEPA (205A1), ODHA (226A1). […] The reduction of this factor is directly related to the anti-inflammatory medication. The compounds are the same as in the left pane.
(§3) Cyclooxygenase (COX) is an enzyme that can bind to membranes, taking certain lipids from there and catalyze its conversion into molecules that can have inflammatory activity. The binding of this enzyme to membrane lipids is due in part to the membrane lipid structure. The increased activity of COX 1 and 2 isoforms has been associated with the etiopathology of a number of inflammatory diseases by […] arachidonic acid metabolism to produce pro-inflammatory lipid mediators. The D-PUFA compounds of the present invention produced a series of cellular signals that alter the metabolism of arachidonic acid and, as a result, they inhibit the activity and expression of COX in monocytes in culture (Table 14 and FIG. 5A). […] For this purpose, C57BL6/J mice were treated with the various derivatives (200 mg/kg, p.o.,) after inducing an inflammatory reaction in them by intraperitoneal injection of 20 μg of bacterial lipopolysaccharide (LPS).
Inhibition of COX-2 expression in monocytes. Percentages of inhibition (compared to the positive control in the presence of LPS, 100%) of COX-2 protein levels (expression) by the various fatty acid derivatives.

TNF-α = test: Production of TNF-α in serum of LPS-injected C57BL6/J mice; format: in vivo; details: LPS 20 μg i.p. (100%), 200 mg/kg p.o.
Excerpt: as §3

[7] = Serum cholesterol, triglycerides and glucose in SHR rats (colorimetric); format: in vivo, rat; details: 200 mg/kg daily p.o., 28 days, untreated rats 100%
Experimental: In a separate experimental series, SHR rats were treated with various compounds of the present invention (200 mg/kg daily, 28 days, p.o.) and the levels of cholesterol, triglycerides and glucose in serum were measured by colorimetric methods. It was observed that these compounds induce significant (and in many cases marked) reductions in the levels of these metabolites (Table 16).
Values are expressed as percent, and in untreated (control) rats values were always considered as 100%.

| Compound | Percentage of total PUFA (3T3 cells) [%] | Transition temperature (lamellar to HII) [1] [°C] | G protein binding [2] | IC50 ([3]; Homo sapiens, MDA-MB-231) [µM] | IC50 [4] [µM] | IC50 (lung cancer cells A549; Homo sapiens, A549) [µM] | IC50 (Jurkat cells; Homo sapiens, Jurkat) [µM] | IC50 (HepG2 cells) [µM] | Blood pressure [5] [mm Hg] | Levels of apoA-I [6] [%] | Neuronal death (P19 cells) after treatment with NMDA (P19 cells) [%] | Expression of α-synuclein (α-synuclein) [%] | COX-2 protein levels (expression), percentages of inhibition compared to positive control (COX-2) [%] | Production of TNF-α in serum (TNF-α) [%] | Cholesterol in serum (top number) [7] [%] | Glucose in serum (bottom number) [7] [%] | Triglycerides in serum (central number) [7] [%] | Temperature of lamellar-to-hexagonal transition [1] [°C] | IC50 [3] [µM] | IC50 (lung cancer cells A549) [µM] | other results |
| --- | --- | --- | --- | --- | --- | --- | --- | --- | --- | --- | --- | --- | --- | --- | --- | --- | --- | --- | --- | --- | --- |
| CCCCCC=CCC=CCCCCCCC(O)C(=O)O (stereo not drawn) [182A1, 2-hydroxy-9,12-octadecadienoic acid] | 42.3 ± 3.1 | 51.8 | 312 ± 12 | 388 | 197 | 944 | 713 | 212 | 204 | 146 | −60 | 50 | 24 | 64 | 78 | 84 | 91 | – | – | – | – |
| CCCCCC=CCC=CCCCCCCC(O)C(=O)[O-].[Na+] (stereo not drawn) [182B1] | – | – | – | – | 198 | – | – | – | 201 | 178 | −62 | 61 | 39 | 79 | 89 | 87 | 72 | 52.1 | 379 | 196 | IC50 (Jurkat cells): 377 µM |
| CCC=CCC=CCC=CCCCCCCC(O)C(=O)O (stereo not drawn) [183A1, 2-hydroxy-9,12,15-octadecatrienoic acid] | 42.8 ± 2.2 | 51.6 | 328 ± 9 | 380 | 397 | 200 | 198 | 380 | 201 | 134 | −55 | 45 | 20 | 70 | 76 | 87 | 81 | – | – | – | – |
| CCCCCC=CCC=CCC=CCCCC(O)C(=O)O (stereo not drawn) [183A2, 2-hydroxy-6,9,12-octadecatrienoic acid] | 44.0 ± 2.6 | 50.1 | 17 ± 357 | 347 | 372 | 192 | 184 | 380 | 189 | 311 | −70 | 40 | 23 | 71 | 79 | 82 | 78 | – | – | – | – |
| CCCCCC=CCC=CCC=CCCCC(O)C(=O)[O-].[Na+] (stereo not drawn) [183B2] | – | – | – | – | 377 | – | – | – | 182 | 285 | −66 | 38 | 29 | 78 | 77 | 86 | 76 | 51 | 156 | 197 | IC50 (Jurkat cells): 184 µM |
| CCCCCC=CCC=CCC=CCC=CCCC(O)C(=O)[O-].[Na+] (stereo not drawn) [204B1] | – | – | – | – | 396 | – | – | – | 202 | 144 | −71 | 36 | 28 | 26 | 71 | 89 | 69 | 50.2 | 345 | 413 | IC50 (Jurkat cells): 104 µM |
